Reference: US20230348866A1, “BI[…] FOR THE PRODUCTION OF CANNABINOIDS AND OTHER […]” (The Regents of the University of California, priority 2019, published 2023)

How the values were obtained:
[1] = test system: MatB pathway (RpMatB, CsAAE3, CsOLS, CsOAC); test: OA/DA production using the MatB pathway with additives; type: biochemical; details: titer at 4 hours relative to control
Experimental: (§1) OA/DA Reaction Conditions using MatB. The conditions for reactions using RpMatB to produce malonyl-CoA were as follows: 15 mM malonate, 5 mM hexanoate or 5 mM butyrate, 1 mM CoA, 4 mM ATP, 25 mM creatine phosphate, 10 mM KCl, 5 mM MgCl2 and 50 mM Tris pH 8.0, 1.3 μM RpMatB, 4.9 μM CsAAE3, 2.9 μM CsOLS, 46.6 μM CsOAC, 7.6 μM GsPpase, 2.6 μM ADK and 2 units of CPK (from Sigma Aldrich). For the additive reactions GPP (0.5-2 mM), OA (0.25-2 mM) and DA (0.25-5 mM) were added before the reaction was initiated.
For the time course, the reactions were quenched (see below) at various time points between 5 mins and 5 hours. The reactions with additives were quenched at 4 hours.
HPLC Sample Analysis. All samples were quenched by 4-fold dilution into methanol (samples with a higher concentration of analyte were diluted up to 10-fold). The protein precipitate was removed by centrifugation at 16,000×g for 5 minutes and the supernatant was transferred to an LC vial for analysis.
Samples were analyzed by reverse phase chromatography on a Syncronis C8 column (4.6×100 mm) using a Thermo Ultimate 3000 HPLC. The column compartment temperature was set to 40° C., and the flow rate was 1 mL/min. The sample inject volume was 20 μL (full loop). The compounds were separated using a gradient elution with water+0.1% TFA (solvent A) and acetonitrile+0.1% TFA (solvent B) as the mobile phase. Solvent B was held at 20% for the first minute. Then solvent B was increased to 95% B over 4 minutes, and held at 95% B for 3 minutes. The column was then re-equilibrated to 20% B for three minutes, for a total run time of 11 minutes. Standards were used to identify the retention time, and to produce an external standard curve for quantification.

OLS = molecular target: T1, OLS (Cannabis sativa, UniProt B1Q2B6); test: OLS activity assay (inhibition by OA/DA); type: biochemical, C. sativa; details: for inhibition of OLS activity: individual enzymes screened, 250 μM OA or 1 mM DA
T1 construct: CsAAE3, CsOLS and CsOAC were synthesized and cloned into the pET28(+) vector with Nde1/Xho1 restriction sites; made in house; host or cells: E. coli C43 BL21 (DE3)
T1 sequence (B1Q2B6 with tags, fused parts or gaps): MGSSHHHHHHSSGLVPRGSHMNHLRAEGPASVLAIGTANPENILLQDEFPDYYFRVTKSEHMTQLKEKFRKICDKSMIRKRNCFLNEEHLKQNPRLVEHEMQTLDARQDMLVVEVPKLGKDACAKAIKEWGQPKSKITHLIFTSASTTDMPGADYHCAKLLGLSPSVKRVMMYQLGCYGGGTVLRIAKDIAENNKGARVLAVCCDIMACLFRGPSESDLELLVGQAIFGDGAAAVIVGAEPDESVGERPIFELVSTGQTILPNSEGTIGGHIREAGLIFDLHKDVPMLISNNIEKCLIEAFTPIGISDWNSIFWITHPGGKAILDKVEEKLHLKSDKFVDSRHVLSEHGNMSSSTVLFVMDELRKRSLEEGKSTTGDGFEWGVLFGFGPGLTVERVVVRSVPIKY
Experimental: OLS Activity Assay. For the inhibition experiments the conditions were altered to: 1 mM malonyl-CoA, 400 μM hexanoyl-CoA in 50 mM citrate buffer, pH 5.5 in a final volume of 200 μL. Either 1% ethanol, 250 μM OA or 1 mM DA was added to the reaction, and then the reactions were initiated by adding 0.65 mg/mL OLS. 50 μL aliquots were quenched at 2, 4, 6 and 8 minutes in 150 μL of methanol. The reactions were vortexed briefly and centrifuged at 16,000×g for 2 minutes to pellet the proteins. The supernatant was analyzed by HPLC. The raw peak areas of HTAL, PDAL and olivetol were summed and plotted against time to determine the rate. The rate of the OA supplemented reaction and the DA supplemented reaction were normalized to the ethanol control.

OA pathway = test: RpMatB reaction system with added GPP and NphB M31^S; type: biochemical; details: increasing GPP (0.5-2 mM)
Experimental: as §1
In an effort to reduce OA/DA inhibition, experiments were performed to remove OA/DA from the reaction as it is made by converting it directly into CBGA/CBGVA. To test this GPP and a stabilized CBGA synthase were added to the system (FIG. 6). The CBGA synthase used, NphB M31^S, is a stabilized version of the soluble enzyme designed previously (Valliere et al., Nat. Commun. 10:565, 2019). […] Experiments were performed to test the effect of GPP concentration on OA production. At just 500 μM GPP, OA production decreased 40% percent (FIG. 2C).

CCCc1cc(O)cc(O)c1C(=O)O [DA, divarinic acid]
reduction of OA production ([1]; 1 mM DA added at time zero): 30%
inhibition of OLS activity (OLS): strongly inhibited

CC(C)=CCC/C(C)=C/COP(=O)(O)OP(=O)(O)O [GPP, geranyl pyrophosphate]
overall production of OA and CBGA (OA pathway): decrease
decrease of OA production ([1]; 500 μM GPP added): 40%

CCCCCc1cc(O)cc(O)c1C(=O)O [OA, olivetolic acid]
reduction of DA production ([1]; 1 mM OA added at time zero): 90%
inhibition of OLS activity (OLS): strongly inhibited
inhibition of enzyme activity, comparison among enzymes (OLS; reaction relevant conditions): CsOLS is the most inhibited
